# Patent publication US20090099169A1, “Benzofuran Compounds As EP1 Receptor Antagonists” (GLAXO GROUP LIMITED, priority 2006, published 2009)
# Counter-ions that a name gives are not always drawn.
# Tests used:
# human EP1 receptor [1] = target: T1, human EP1 receptor (Homo sapiens, UniProt P34995); assay: Binding assay for the human prostanoid EP1 receptor (radioligand competition); set-up: expressed in transfected cells; host or cells: CHO-K1 (membranes); details: CHO-K1 membranes; [3H]-PGE2 for Examples 1-17, 19, 33, 34, 60 and 61, 3-{2-[5-Bromo-2-(2,4-difluorobenzyloxy)-phenyl]-5-methyl-pyrrol-1-yl}-6-[3H3-methoxy]methoxy-benzoic acid for the remaining; averages of a number of experiments; read-out: pIC50 value (binding assay for the human prostanoid EP1 receptor) (converted)
# T1 sequence (P34995 1-402): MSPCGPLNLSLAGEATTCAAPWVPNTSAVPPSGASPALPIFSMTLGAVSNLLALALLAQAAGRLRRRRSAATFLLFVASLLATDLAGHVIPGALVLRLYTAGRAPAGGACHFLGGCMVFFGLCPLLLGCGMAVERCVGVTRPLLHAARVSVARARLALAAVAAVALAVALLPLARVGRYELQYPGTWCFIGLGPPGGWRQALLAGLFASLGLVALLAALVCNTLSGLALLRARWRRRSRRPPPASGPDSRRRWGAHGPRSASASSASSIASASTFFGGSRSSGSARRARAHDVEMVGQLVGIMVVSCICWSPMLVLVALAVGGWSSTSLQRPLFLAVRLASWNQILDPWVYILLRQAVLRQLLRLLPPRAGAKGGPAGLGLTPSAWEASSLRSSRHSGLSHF
# Description: Compound potencies are determined using a radioligand binding assay. In this assay compound potencies are determined from their ability to compete with tritiated prostaglandin E2 ([^3H]-PGE2) for binding to the human EP1 receptor.
# This assay utilises Chinese hamster ovary-K1 (CHO-K1) cells into which a stable vector containing the EP1 cDNA has previously been transfected. Cells are cultured in suitable flasks containing culture medium such as DMEM:F-12 supplemented with 10% v/v foetal calf serum, 2 mM L-glutamine, 0.25 mg/ml geneticin, 10 μg/ml puromycin and 10 μM indomethacin.
# Cells are detached from the culture flasks by incubation in calcium and magnesium free phosphate buffered saline containing 1 mM disodium ethylenediaminetetraacetic acid (Na2EDTA) and […] indomethacin for 5 min. The cells are isolated by centrifugation at 250×g for 5mins and suspended in an ice cold buffer such as 50 mM Tris, 1 mM Na2EDTA, 140 mM NaCl, 10 μM indomethacin (pH 7.4). The cells are homogenised using a Polytron tissue disrupter (2×10 s burst at full setting), centrifuged at 48,000×g for 20mins and the pellet containing the membrane fraction is washed (optional) three times by suspension and centrifugation at 48,000×g for 20mins. The final membrane pellet is suspended in an assay buffer such as 10 mM 2-[N-morpholino]ethanesulphonic acid, 1 mM Na2EDTA, 10 mM MgCl2 (pH 6). Aliquots are frozen at −80° C. until required.
# (§1) For the binding assay the cell membranes, competing compounds and [^3H]-PGE2 (3 nM final assay concentration) are incubated in a final volume of 100 μl for 30 min at 30° C. All reagents are prepared in assay buffer. Reactions are terminated by rapid vacuum filtration over GF/B filters using a Brandell cell harvester. The filters are washed with ice cold assay buffer, dried and the radioactivity retained on the filters is measured by liquid scintillation counting in Packard TopCount scintillation counter.
# The data are analysed using non linear curve fitting techniques to determine the concentration of compound producing 50% inhibition of specific binding (IC50).
# Alternatively a similar assay may be carried out using 3-{2-[5-Bromo-2-(2,4-difluoro-benzyloxy)-phenyl]-5-methyl-pyrrol-1-yl}-6-[^3H3-methoxy]methoxy-benzoic acid instead of [^3H]-PGE2.
# For the binding assay using 3-{2-[5-Bromo-2-(2,4-difluoro-benzyloxy)-phenyl]-5-methyl-pyrrol-1-yl}-6-[^3H3-methoxy]methoxy-benzoic acid instead of [^3H]-PGE2 the assay is carried out using a similar procedure to that described above using [^3H]-PGE2 with the following changes:
# as §1, with “The” for “For the binding assay the”, “3-{2-[5-Bromo-2-(2,4-difluoro-benzyloxy)-phenyl]-5-methyl-pyrrol-1-yl}-6-[^3H3-methoxy]methoxy-benzoic acid (0.2” for “[^3H]-PGE2 (3”, “400” for “100”, “45” for “30”, “37°” for “30°”, “water at ambient temperature,” for “ice cold assay buffer,”
# The preparation of 3-{2-[5-Bromo-2-(2,4-difluoro-benzyloxy)-phenyl]-5-methyl-pyrrol-1-yl}-6-methoxy-benzoic acid is described in WO 03/101959 and in Hall et al, Biorg. Med. Chem. Lett., 2007, 17, 916-920. The tritiated version may be prepared via conventional routes, e.g. from 3-{2-[5-bromo-2-(2,4-difluoro-benzyloxy)-phenyl]-5-methyl-pyrrol-1-yl}-6-hydroxy-benzoic acid or 3-{2-[5-bromo-2-(2,4-difluoro-benzyloxy)-phenyl]-5-methyl-pyrrol-1-yl}-6-hydroxy-benzoic acid methyl ester.
# human EP1 receptor [2] = target: T1, human EP1 receptor; assay: human EP1 calcium mobilisation assay; format: cell-based; set-up: expressed in transfected cells; details: CHO-K1 cells, antagonism of PGE2; averages of a number of experiments; read-out: functional pKi value (human EP1 calcium mobilisation assay) (converted)
# Description: Briefly, the antagonist properties of compounds are assessed by their ability to inhibit the mobilisation of intracellular calcium ([Ca^2+]i) in response to activation of EP1 or EP3 receptors by the natural agonist hormone prostaglandin E2 (PGE2). Increasing concentrations of antagonist reduce the amount of calcium that a given concentration of PGE2 can mobilise. The net effect is to displace the PGE2 concentration-effect curve to higher concentrations of PGE2. The amount of calcium produced is assessed using a calcium-sensitive fluorescent dye such as Fluo-4, AM and a suitable instrument such as a Fluorimetric Imaging Plate Reader (FLIPR). Increasing amounts of [Ca^2+]i produced by receptor activation increase the amount of fluorescence produced by the dye and give rise to an increasing signal. The signal may be detected using the FLIPR instrument and the data generated may be analysed with suitable curve-fitting software.
# The human EP1 or EP3 calcium mobilisation assay (hereafter referred to as ‘the calcium assay’) utilises Chinese hamster ovary-K1 (CHO-K1) cells into which a stable (PCIN; BioTechniques 20 (1996): 102-110) vector containing either EP1 or EP3 cDNA has previously been transfected. Cells are cultured in suitable flasks containing culture medium such as DMEM:F-12 supplemented with 10% v/v foetal calf serum, 2 mM L-glutamine, 0.25 mg/ml geneticin, 100 μM flurbiprofen and 10 μg/ml puromycin.
# For assay, cells are harvested using a proprietary reagent that dislodges cells such as Versene. Cells are re-suspended in a suitable quantity of fresh culture media for introduction into a 384-well plate. Following incubation for 24 hours at 37° C. the culture media is replaced with a medium containing Fluo-4 and the detergent pluronic acid, and a further incubation takes place. Concentrations of compounds are then added to the plate in order to construct concentration-effect curves. This may be performed on the FLIPR in order to assess the agonist properties of the compounds. Concentrations of PGE2 are then added to the plate in order to assess the antagonist properties of the compounds.
# The data so generated may be analysed by means of a computerised curve-fitting routine. The concentration of compound that elicits a half-maximal inhibition of the calcium mobilisation induced by PGE2 (pIC50) may then be estimated.
Compound,IC50 (human EP1 receptor [1]),Ki (human EP1 receptor [2])
"Cc1cc(C(=O)O)nn1Cc1cc(Cl)cc2cc(C3CC3)oc12 [Example 23, Sodium 1-[(5-chloro-2-cyclopropyl-1-benzofuran-7-yl)methyl]-5-methyl-1H-pyrazole-3-carboxylate]",≤ 100 nM,–
"Cc1cc(C(=O)O)nn1Cc1cc(C#N)cc2cc(C(C)C)oc12 [Example 25, 1-{[5-Cyano-2-(1-methylethyl)-1-benzofuran-7-yl]methyl}-5-methyl-1H-pyrazole-3-carboxylic Acid]",≤ 100 nM,≤ 316 nM
"Cc1cc(C(=O)NC2CCOCC2)nn1Cc1cc(Cl)cc2cc(C3CCCCC3)oc12 [Example 29, 1-[(5-Chloro-2-cyclohexyl-1-benzofuran-7-yl)methyl]-5-methyl-N-(tetrahydro-2H-pyran-4-yl)-1H-pyrazole-3-carboxamide]",≤ 100 nM,≤ 316 nM
"CC(C)c1cc2cc(Cl)cc(Cc3ccc(C(N)=O)o3)c2o1 [Example 37, 5-{[5-Chloro-2-(1-methylethyl)-1-benzofuran-7-yl]methyl}-2-furancarboxamide]",≤ 100 nM,≤ 316 nM
"Cc1cc(NC(=O)[C@H]2CC[C@H](O)CC2)nn1Cc1cc(Cl)cc2cc(C(C)C)oc12 [Example 63, trans-N-(1-{[5-chloro-2-(1-methylethyl)-1-benzofuran-7-yl]methyl}-5-methyl-1H-pyrazol-3-yl)-4-hydroxycyclohexanecarboxamide]",≤ 100 nM,–
"Cc1cc(C(=O)NC2CCOCC2)nn1Cc1cc(Cl)cc2cc(C(C)C)oc12 [Example 60, 1-{[5-chloro-2-(1-methylethyl)-1-benzofuran-7-yl]methyl}-5-methyl-N-(tetrahydro-2H-pyran-4-yl)-1H-pyrazole-3-carboxamide]",≤ 100 nM,≤ 316 nM
"Cc1cc(NC(=O)[C@H]2CC[C@@H](O)CC2)nn1Cc1cc(Cl)cc2cc(C(C)C)oc12 [Example 62, cis-N-(1-{[5-Chloro-2-(1-methylethyl)-1-benzofuran-7-yl]methyl}-5-methyl-1H-pyrazol-3-yl)-4-hydroxycyclohexanecarboxamide]",≤ 100 nM,–
Cc1cc(NC(=O)c2ccc(CN3CCCC3)cc2)nn1Cc1cc(Cl)cc2cc(C(C)C)oc12 [Example 67],≤ 100 nM,–
CC(C)c1cc2cc(Cl)cc(Cc3cccc(C(=O)O)n3)c2o1 [Example 24],≤ 100 nM,≤ 316 nM
"Cc1cc(C(=O)Nc2ccc(CN3CCC(O)CC3)cc2)nn1Cc1cc(Br)cc2cc(C(C)C)oc12 [Example 49, 1-{[5-Bromo-2-(1-methylethyl)-1-benzofuran-7-yl]methyl}-N-{4-[(4-hydroxy-1-piperidinyl)methyl]phenyl}-5-methyl-1H-pyrazole-3-carboxamide Hydrochloride]",≤ 100 nM,–
"Cc1cc(C(=O)Nc2ccc(CN3CCOCC3)cc2)nn1Cc1cc(Br)cc2cc(C(C)C)oc12 [Example 52, 1-{[5-Bromo-2-(1-methylethyl)-1-benzofuran-7-yl]methyl}-5-mthyl-N-[4-(4-morpholinylmethyl)phenyl]-1H-pyrazole-3-carboxamidehydrochloride]",≤ 100 nM,≤ 316 nM
"CNCc1ccc(NC(=O)c2cc(C)n(Cc3cc(Br)cc4cc(C(C)C)oc34)n2)cc1 [Example 50, 1-{[5-Bromo-2-(1-methylethyl)-1-benzofuran-7-yl]methyl}-5-methyl-N-{4-[(methylamino)methyl]phenyl}-1H-pyrazole-3-carboxamidehydrochloride]",≤ 100 nM,≤ 316 nM
"CCN1CCC(CNC(=O)c2cc(C)n(Cc3cc(Cl)cc4cc(C(C)C)oc34)n2)CC1 [Example 36, 1-{[5-chloro-2-(1-methylethyl)-1-beenzofuran-7-yl]methyl}-N-[(1-ethyl-4-piperidinyl)methyl]-5-methyl-1H-pyrazole-3-carboxamidehydrochloride]",–,1000 to 1580 nM
"CC(C)c1cc2cc(Cl)cc(Cc3ccc(C(=O)Nc4ccc(CN5CCOCC5)cc4)o3)c2o1 [Example 54, 5-{[5-Chloro-2-(1-methylethyl)-1-benzofuran-7-yl]methyl}-N-[4-(4-morpholinylmethyl)phenyl]-2-furancarboxamide Hydrochloride]",–,≤ 316 nM
"Cc1cc(C(=O)O)nn1Cc1cc(Br)cc2cc(C(C)C)oc12 [Example 19, 1-{[5-Bromo-2-(1-methylethyl)-1-benzofuran-7-yl]methyl}-5-methyl-1H-pyrazole-3-carboxylic Acid]",≤ 100 nM,≤ 316 nM
"Cc1cc(C(=O)O)nn1Cc1cccc2cc(C(C)C)oc12 [Example 20, 5-Methyl-1-{[2-(1-methylethyl)-1-benzofuran-7-yl]methyl}-1H-pyrazole-3-carboxylic Acid]",–,≤ 316 nM
"Cc1cc(C(=O)NN2CCOCC2)nn1Cc1cc(Cl)cc2cc(C(C)C)oc12 [Example 7, 1-{[5-Chloro-2-(1-methylethyl)-1-benzofuran-7-yl]methyl}-5-methyl-N-4-morpholinyl-1H-pyrazole-3-carboxamide]",≤ 100 nM,≤ 316 nM
"CC(C)c1cc2cc(Cl)cc(Cc3ccc(C(=O)NN4CCCCC4)o3)c2o1 [Example 43, 5-{[5-Chloro-2-(1-methylethyl)-1-benzofuran-7-yl]methyl}-N-1-piperidinyl-2-furancarboxamide]",–,≤ 316 nM
